Here are results for two compounds from publication PMC2952853 (Nucleic Acids Research, 2010).

SMILES strings stand for the structures. pIC50: −log10 of the molar value.

Experiment [1] deals with T1, RutR (RutR-His6; YcdC) (Escherichia coli, UniProt P0ACU2).
T1 sequence (P0ACU2 1-212): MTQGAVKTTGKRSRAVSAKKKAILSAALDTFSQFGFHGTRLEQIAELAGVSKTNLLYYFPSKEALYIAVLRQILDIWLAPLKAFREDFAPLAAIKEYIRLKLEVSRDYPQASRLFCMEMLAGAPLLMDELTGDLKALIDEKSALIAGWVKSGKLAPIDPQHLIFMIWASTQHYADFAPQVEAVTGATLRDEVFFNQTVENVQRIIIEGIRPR
The class given is binding. The conditions noted are these: read-out: % inhibition at 100 μM.

The target in experiment [2] is T1, RutR (RutR-His6; YcdC). Briefly: EMSA, inhibition of RutR binding to […]-labelled carP1. On the technique in general: Mobility shift assays separate free from complexed probe on a gel.

Usually inhibition stands for the percentage by which the read-out fell short of the control. On to `Cc1c[nH]c(=O)[nH]c1=O` [thymine], for which the inhibition at 100 µM at RutR (RutR-His6; YcdC) [1] was around 50%.

As a reminder, the pIC50 is the negative decadic logarithm of the IC50, by convention in mol/L. A lower pIC50 goes with a large IC50. For the compound `O=c1cc[nH]c(=O)[nH]1` [uracil], at RutR (RutR-His6; YcdC) [2], the negative-log IC50 (pIC50) is around 7.00.
